18 compounds from patent US12134620B2 (ARAXES PHARMA LLC, priority 2018, dated 2024) can be followed below.

SMILES strings stand for the structures.

In the assay the target is T1, KRAS G12C 1-169, his-tagged protein, GDP-loaded (Homo sapiens, UniProt P01116, G12C).
T1 construct: KRAS G12C 1-169, his-tagged protein, GDP-loaded; His tag
In words: Biochemical assay: covalent modification of KRAS G12C, analysed by mass spectrometry (RapidFire/TOF or Q-Exactive). Note: time not given here. The class given is binding. Conditions: Modification activity, modification percentage from MS peak intensities. A digest of the protocol: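 Covalent adduct formation was quantified by intact-protein mass spectrometry, either TOF or C4 LC-Q Exactive Plus, as percent modified versus unmodified protein after deconvolution. Compounds at 8 or 32 μM final were incubated with 0.5 or 2 μM GDP-bound KRAS G12C(1-169)-His in Hepes/NaCl/MgCl2 buffer before acid quench.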
As for `C=CC(=O)N1CC2(CCN(c3nc(OC[C@@H]4CCCN4C)cc(-c4c(C)ccc5[nH]ncc45)n3)C2)C1` [Compound I-148, (S)-1-(6-(4-(5-methyl-1H-indazol-4-yl)-6-((1-methylpyrrolidin-2-yl)methoxy)pyrimidin-2-yl)-2,6-diazaspiro[3.4]octan-2-yl)prop-2-en-1-one], the Binding % entry was “+ (+ indicates binding activity greater than 0% and up to 50%)”.

On to `C=CC(=O)N1CC2(CCN(c3nc(OCc4cnc(OC)nc4)nc(-c4c(C)ccc5[nH]ncc45)c3C#N)C2)C1` [Compound I-149, 4-(2-acryloyl-2,6-diazaspiro[3.4]octan-6-yl)-2-((2-methoxypyrimidin-5-yl)methoxy)-6-(5-methyl-1H-indazol-4-yl)pyrimidine-5-carbonitrile], for which the Binding % result is “+++ (+++ indicates binding activity greater than 85%)”.

Turning to `C=CC(=O)N1CC2(CCN(c3nc(OCc4cccnc4)nc(-c4c(C)ccc5[nH]ncc45)c3C#N)C2)C1` [Compound I-150, 4-(2-acryloyl-2,6-diazaspiro[3.4]octan-6-yl)-6-(5-methyl-1H-indazol-4-yl)-2-(pyridin-3-ylmethoxy)pyrimidine-5-carbonitrile], the Binding % entry is given as “++ (++ indicates binding activity from 50 to 85%)”.

Take `C=CC(=O)N1CC2(CCN(c3nc(OCc4cccc(OC)c4)nc(-c4c(C)ccc5[nH]ncc45)c3C#N)C2)C1` [Compound I-151, 4-(2-acryloyl-2,6-diazaspiro[3.4]octan-6-yl)-2-((3-methoxybenzyl)oxy)-6-(5-methyl-1H-indazol-4-yl)pyrimidine-5-carbonitrile]: the Binding % result was “++ (++ indicates binding activity from 50 to 85%)”.

In the case of `C=CC(=O)N1CC2(CCN(c3nc(OCc4cc(F)cc(F)c4)nc(-c4c(C)ccc5[nH]ncc45)c3C#N)C2)C1` [Compound I-152], the Binding % result is listed as “++ (++ indicates binding activity from 50 to 85%)”.

Take `C=CC(=O)N1CC2(CCN(c3nc(OCc4ccc(N5CCOCC5)cn4)nc(-c4c(C)ccc5[nH]ncc45)c3C#N)C2)C1` [Compound I-153, 4-(2-acryloyl-2,6-diazaspiro[3.4]octan-6-yl)-6-(5-methyl-1H-indazol-4-yl)-2-((5-morpholinopyridin-2-yl)methoxy)pyrimidine-5-carbonitrile]: the Binding % result was “++ (++ indicates binding activity from 50 to 85%)”.

On to `C=CC(=O)N1CC2(CCN(c3nc(OCc4ncccn4)nc(-c4c(C)ccc5[nH]ncc45)c3C#N)C2)C1` [Compound I-154, 4-(2-acryloyl-2,6-diazaspiro[3.4]octan-6-yl)-6-(5-methyl-1H-indazol-4-yl)-2-(pyrimidin-2-ylmethoxy)pyrimidine-5-carbonitrile], for which the Binding % entry is listed as “++ (++ indicates binding activity from 50 to 85%)”.

In the case of `C=CC(=O)N1CC2(CCN(c3nc(OCc4ccc(C(F)(F)F)cn4)nc(-c4c(C)ccc5cnn(C)c45)c3C#N)C2)C1` [Compound I-155, 4-(2-acryloyl-2,6-diazaspiro[3.4]octan-6-yl)-6-(1,6-dimethyl-1H-indazol-7-yl)-2-((5-(trifluoromethyl)pyri-din-2-yl)methoxy)pyrimidine-5-carbonitrile], the Binding % result is recorded as “++ (++ indicates binding activity from 50 to 85%)”.

For `C=CC(=O)N1CC2(CCN(c3nc(OCc4cccc(C(F)(F)F)n4)nc(-c4c(C)ccc5cnn(C)c45)c3C#N)C2)C1` [Compound I-156, 4-(2-acryloyl-2,6-diazaspiro[3.4]octan-6-yl)-6-(1,6-dimethyl-1H-indazol-7-yl)-2-((6-(trifluoromethyl)pyri-din-2-yl)methoxy)pyrimidine-5-carbonitrile], the Binding % result is recorded as “++ (++ indicates binding activity from 50 to 85%)”.

In the case of `C=CC(=O)N1CC2(CCN(c3nc(OCc4ccc(C(F)(F)F)cc4)nc(-c4c(C)ccc5cnn(C)c45)c3C#N)C2)C1` [Compound I-157, 4-(2-acryloyl-2,6-diazaspiro[3.4]octan-6-yl)-6-(1,6-dimethyl-1H-indazol-7-yl)-2-((4-(trifluoromethyl)ben-zyl)oxy)pyrimidine-5-carbonitrile], the Binding % result is given as “++ (++ indicates binding activity from 50 to 85%)”.

Turning to `C=CC(=O)N1CC2(CCN(c3nc(OCc4cccc(C(F)(F)F)c4)nc(-c4c(C)ccc5cnn(C)c45)c3C#N)C2)C1` [Compound I-158, 4-(2-acryloyl-2,6-diazaspiro[3.4]octan-6-yl)-6-(1,6-dimethyl-1H-indazol-7-yl)-2-((3-(trifluoromethyl)ben-zyl)oxy)pyrimidine-5-carbonitrile], the Binding % result is on record as “++ (++ indicates binding activity from 50 to 85%)”.

As to `C=CC(=O)N1CC2(CCN(c3nc(OCc4cccc(OC)c4)nc(-c4c(C)ccc5cnn(C)c45)c3C#N)C2)C1` [Compound I-159, 4-(2-acryloyl-2,6-diazaspiro[3.4]octan-6-yl)-6-(1,6-dimethyl-1H-indazol-7-yl)-2-((3-methoxybenzyl)oxy) pyrimidine-5-carbonitrile], the Binding % entry is recorded as “++ (++ indicates binding activity from 50 to 85%)”.

Take `C=CC(=O)N1CC2(CCN(c3nc(N4CCC(N5CCN(C)CC5)CC4)nc(-c4c(C)ccc5cnn(C)c45)c3C#N)C2)C1` [Compound I-160, 4-(2-acryloyl-2,6-diazaspiro[3.4]octan-6-yl)-6-(1,6-dimethyl-1H-indazol-7-yl)-2-(4-(4-methylpiperazin-1-yl)piperidin-1-yl)pyrimidine-5-carbonitrile]: the Binding % result is “++ (++ indicates binding activity from 50 to 85%)”.

As for `C=CC(=O)N1CC2(CCN(c3nc(OCc4cnc(OC)nc4)nc(-c4c(C)ccc5cnn(C)c45)c3C#N)C2)C1` [Compound I-161, 4-(2-acryloyl-2,6-diazaspiro[3.4]octan-6-yl)-6-(1,6-dimethyl-1H-indazol-7-yl)-2-((2-methoxypyrimidin-5-yl)methoxy)pyrimidine-5-carbonitrile], the Binding % entry was “++ (++ indicates binding activity from 50 to 85%)”.

In the case of `C=CC(=O)N1CC2(CCN(c3nc(OCc4ccc(N5CCOCC5)cn4)nc(-c4c(C)ccc5cnn(C)c45)c3C#N)C2)C1` [Compound I-162, 4-(2-acryloyl-2,6-diazaspiro[3.4]octan-6-yl)-6-(1,6-dimethyl-1H-indazol-7-yl)-2-((5-morpholinopyridin-2-yl)methoxy)pyrimidine-5-carbonitrile], the Binding % result is listed as “++ (++ indicates binding activity from 50 to 85%)”.

For `C=CC(=O)N1CC2(CCN(c3nc(OCc4ccccc4)nc(-c4c(C)ccc5cnn(C)c45)c3C#N)C2)C1` [Compound I-163, 4-(2-acryloyl-2,6-diazaspiro[3.4]octan-6-yl)-2-(benzyloxy)-6-(1,6-dimethyl-1H-indazol-7-yl)pyrimidine-5-carbonitrile], the Binding % result was “++ (++ indicates binding activity from 50 to 85%)”.

`C=CC(=O)N1CC2(CCN(c3nc(OCc4ccnnc4)nc(-c4c(C)ccc5cnn(C)c45)c3C#N)C2)C1` [Compound I-164, 4-(2-acryloyl-2,6-diazaspiro[3.4]octan-6-yl)-6-(1,6-dimethyl-1H-indazol-7-yl)-2-(pyridazin-4-ylmethoxy)pyrimidine-5-carbonitrile]: the Binding % entry is recorded as “++ (++ indicates binding activity from 50 to 85%)”.

As for `C=CC(=O)N1CC2(CCN(c3nc(OCc4cc(F)cc(F)c4)nc(-c4c(C)ccc5cnn(C)c45)c3C#N)C2)C1` [Compound I-165], the Binding % entry is on record as “++ (++ indicates binding activity from 50 to 85%)”.
